Test [1] has as its target T1, Retinoic acid receptor RXR-alpha (Homo sapiens) (UniProt P19793).
T1 sequence (whole entry): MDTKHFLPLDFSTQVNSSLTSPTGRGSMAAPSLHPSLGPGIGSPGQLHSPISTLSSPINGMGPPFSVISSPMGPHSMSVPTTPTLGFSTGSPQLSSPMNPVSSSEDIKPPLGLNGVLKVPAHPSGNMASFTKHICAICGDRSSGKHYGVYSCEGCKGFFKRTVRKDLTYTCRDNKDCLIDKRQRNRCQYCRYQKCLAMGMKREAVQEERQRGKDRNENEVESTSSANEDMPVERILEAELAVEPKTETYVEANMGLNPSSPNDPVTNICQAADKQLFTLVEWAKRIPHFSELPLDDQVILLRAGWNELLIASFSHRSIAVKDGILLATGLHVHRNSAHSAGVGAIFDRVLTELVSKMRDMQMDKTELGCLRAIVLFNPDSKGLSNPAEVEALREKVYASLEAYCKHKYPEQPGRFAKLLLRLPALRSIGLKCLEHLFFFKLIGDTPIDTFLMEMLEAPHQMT
The experiment in a line: Selectivity interaction (Reporter gene assay) EUB0001174a RXRA. Details: recommended concentration 1 uM. As to conditions: reference bexarotene 1 uM, Selectivity number of off-targets 0.0, Selectivity number of targets 1.0, Source Knowledge inhouse. For orientation: In a reporter assay the amount or activity of a reporter protein is the signal.

For test [2], the target named is T2, Alpha trans-inducing protein (Human alphaherpesvirus 1) (UniProt A0A5J6DW59). Kind of test: Selectivity interaction (Reporter gene assay) EUB0001174a UL48. Details: recommended concentration 1 uM.
T2 sequence (A0A5J6DW59 as listed by the source): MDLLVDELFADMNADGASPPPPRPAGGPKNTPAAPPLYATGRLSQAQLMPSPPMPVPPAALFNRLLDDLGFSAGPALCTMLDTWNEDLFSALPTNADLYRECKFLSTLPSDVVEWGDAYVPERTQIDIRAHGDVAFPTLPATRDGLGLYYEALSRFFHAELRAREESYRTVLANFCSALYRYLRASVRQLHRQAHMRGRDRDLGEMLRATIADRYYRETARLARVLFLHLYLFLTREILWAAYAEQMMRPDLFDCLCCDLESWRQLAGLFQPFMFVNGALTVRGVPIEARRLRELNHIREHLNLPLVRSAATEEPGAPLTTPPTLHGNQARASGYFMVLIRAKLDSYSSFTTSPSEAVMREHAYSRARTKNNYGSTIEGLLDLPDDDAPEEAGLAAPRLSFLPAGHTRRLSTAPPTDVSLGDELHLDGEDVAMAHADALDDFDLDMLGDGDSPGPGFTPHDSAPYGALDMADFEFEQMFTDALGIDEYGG
The target in test [3] is Nuclear receptor subfamily 4immunitygroup A member 1 (Homo sapiens) (UniProt P22736). The experiment in a line: Selectivity interaction (Reporter gene assay) EUB0001174a NR4A1. Also on record: recommended concentration 1 uM.
Nuclear receptor subfamily 4immunitygroup A member 1 (Homo sapiens), sequence (P22736 whole entry): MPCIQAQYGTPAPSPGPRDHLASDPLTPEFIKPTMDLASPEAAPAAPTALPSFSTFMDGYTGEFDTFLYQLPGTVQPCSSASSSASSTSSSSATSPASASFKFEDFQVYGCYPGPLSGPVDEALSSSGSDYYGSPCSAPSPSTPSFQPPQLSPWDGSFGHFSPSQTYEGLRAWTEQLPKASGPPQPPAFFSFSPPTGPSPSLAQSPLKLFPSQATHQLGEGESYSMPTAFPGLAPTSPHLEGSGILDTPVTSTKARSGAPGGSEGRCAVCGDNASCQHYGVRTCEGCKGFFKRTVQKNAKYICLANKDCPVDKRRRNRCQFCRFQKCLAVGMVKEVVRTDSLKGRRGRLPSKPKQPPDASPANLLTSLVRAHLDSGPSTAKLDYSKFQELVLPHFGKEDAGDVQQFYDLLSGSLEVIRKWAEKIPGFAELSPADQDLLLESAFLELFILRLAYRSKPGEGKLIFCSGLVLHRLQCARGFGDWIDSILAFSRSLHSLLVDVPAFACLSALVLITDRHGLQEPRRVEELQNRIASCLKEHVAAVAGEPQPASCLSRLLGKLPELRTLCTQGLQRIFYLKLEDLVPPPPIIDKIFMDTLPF
In test [4] the target is T3, Nuclear receptor subfamily 2 group C member 1 (Homo sapiens) (UniProt P13056).
T3 sequence (whole entry): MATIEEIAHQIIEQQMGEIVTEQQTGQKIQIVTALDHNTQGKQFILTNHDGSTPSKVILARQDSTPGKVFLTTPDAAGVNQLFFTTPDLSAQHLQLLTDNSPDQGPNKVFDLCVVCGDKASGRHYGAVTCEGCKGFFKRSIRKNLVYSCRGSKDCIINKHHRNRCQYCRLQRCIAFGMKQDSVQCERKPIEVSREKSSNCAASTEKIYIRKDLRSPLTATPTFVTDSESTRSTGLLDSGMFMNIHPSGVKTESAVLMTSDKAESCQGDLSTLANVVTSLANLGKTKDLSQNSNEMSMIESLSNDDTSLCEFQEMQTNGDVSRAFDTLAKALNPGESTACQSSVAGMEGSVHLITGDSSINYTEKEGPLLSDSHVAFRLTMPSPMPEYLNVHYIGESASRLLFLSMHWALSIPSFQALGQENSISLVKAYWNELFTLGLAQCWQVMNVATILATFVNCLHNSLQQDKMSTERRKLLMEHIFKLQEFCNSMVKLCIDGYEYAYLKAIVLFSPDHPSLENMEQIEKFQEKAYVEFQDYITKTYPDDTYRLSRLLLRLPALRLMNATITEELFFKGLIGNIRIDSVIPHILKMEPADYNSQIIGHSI
The experiment in a line: Selectivity interaction (Reporter gene assay) EUB0001174a NR2C1. Also on record: recommended concentration 1 uM.

Test [5] addresses Steroidogenic factor 1 (Homo sapiens) (UniProt Q13285). The experiment in a line: Selectivity interaction (Reporter gene assay) EUB0001174a NR5A1. Also on record: recommended concentration 1 uM.
Test [6] deals with T4, Hepatocyte nuclear factor 4-alpha (Homo sapiens) (UniProt P41235).
T4 sequence (whole entry): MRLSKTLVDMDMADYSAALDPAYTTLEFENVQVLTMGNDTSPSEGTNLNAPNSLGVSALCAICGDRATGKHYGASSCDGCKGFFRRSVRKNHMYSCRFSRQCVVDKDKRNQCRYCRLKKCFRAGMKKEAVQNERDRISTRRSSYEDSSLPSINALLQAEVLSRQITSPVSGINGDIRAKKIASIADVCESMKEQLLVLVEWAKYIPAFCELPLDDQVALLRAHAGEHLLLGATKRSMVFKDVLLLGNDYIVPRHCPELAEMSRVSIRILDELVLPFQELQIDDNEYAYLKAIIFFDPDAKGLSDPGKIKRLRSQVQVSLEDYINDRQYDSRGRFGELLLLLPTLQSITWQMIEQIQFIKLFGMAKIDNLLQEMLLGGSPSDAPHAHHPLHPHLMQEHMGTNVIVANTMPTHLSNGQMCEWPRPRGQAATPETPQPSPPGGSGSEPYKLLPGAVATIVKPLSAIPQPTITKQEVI
Kind of test: Selectivity interaction (Reporter gene assay) EUB0001174a HNF4A. Details: recommended concentration 1 uM.

Test [7] concerns the target Oxysterols receptor LXR-alpha (Homo sapiens) (UniProt Q13133). Kind of test: Selectivity interaction (Reporter gene assay) EUB0001174a NR1H3. The conditions noted are these: screened at recom. conc., Selectivity number of off-targets 1.0, Selectivity number of targets 19.0, Source Knowledge inhouse. Also on record: recommended concentration 1 uM.
Test [8] addresses T5, Oxysterols receptor LXR-beta (Homo sapiens) (UniProt P55055).
T5 sequence (whole entry): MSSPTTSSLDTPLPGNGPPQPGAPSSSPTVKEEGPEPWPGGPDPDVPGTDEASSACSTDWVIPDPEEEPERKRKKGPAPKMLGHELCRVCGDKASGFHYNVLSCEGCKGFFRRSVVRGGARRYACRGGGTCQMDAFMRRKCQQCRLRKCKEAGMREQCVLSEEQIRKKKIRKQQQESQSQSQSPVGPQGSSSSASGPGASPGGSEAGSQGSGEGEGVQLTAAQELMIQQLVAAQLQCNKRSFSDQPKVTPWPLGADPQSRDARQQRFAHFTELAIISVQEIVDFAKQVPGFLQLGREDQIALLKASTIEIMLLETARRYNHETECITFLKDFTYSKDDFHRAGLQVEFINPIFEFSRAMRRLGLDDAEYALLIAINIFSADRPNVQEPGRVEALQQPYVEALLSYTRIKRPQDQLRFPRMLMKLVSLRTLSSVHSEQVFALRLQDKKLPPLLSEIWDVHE
Kind of test: Selectivity interaction (Reporter gene assay) EUB0001174a NR1H2. Also on record: recommended concentration 1 uM. As to conditions: screened at recom. conc., Selectivity number of off-targets 1.0, Selectivity number of targets 19.0, Source Knowledge inhouse.

Test [9] concerns the target Nuclear receptor subfamily 2 group E member 1 (Homo sapiens) (UniProt Q9Y466). Kind of test: Selectivity interaction (Reporter gene assay) EUB0001174a NR2E1. Details: recommended concentration 1 uM. The conditions noted are these: screened at recom. conc., Selectivity number of off-targets 1.0, Selectivity number of targets 5.0, Source Knowledge inhouse.
The target is the same in test [10]. Kind of test: Selectivity interaction (Reporter gene assay) EUB0001173a NR2E1. Also on record: recommended concentration 1 uM.
Test [11] addresses T1, Retinoic acid receptor RXR-alpha (Homo sapiens). Kind of test: Selectivity interaction (Reporter gene assay) EUB0001173a RXRA. Also on record: recommended concentration 1 uM.
In test [12] the target is Steroidogenic factor 1 (Homo sapiens) (UniProt Q13285). The experiment in a line: Selectivity interaction (Reporter gene assay) EUB0001173a NR5A1. Also on record: recommended concentration 1 uM.
Steroidogenic factor 1 (Homo sapiens), sequence (Q13285 whole entry): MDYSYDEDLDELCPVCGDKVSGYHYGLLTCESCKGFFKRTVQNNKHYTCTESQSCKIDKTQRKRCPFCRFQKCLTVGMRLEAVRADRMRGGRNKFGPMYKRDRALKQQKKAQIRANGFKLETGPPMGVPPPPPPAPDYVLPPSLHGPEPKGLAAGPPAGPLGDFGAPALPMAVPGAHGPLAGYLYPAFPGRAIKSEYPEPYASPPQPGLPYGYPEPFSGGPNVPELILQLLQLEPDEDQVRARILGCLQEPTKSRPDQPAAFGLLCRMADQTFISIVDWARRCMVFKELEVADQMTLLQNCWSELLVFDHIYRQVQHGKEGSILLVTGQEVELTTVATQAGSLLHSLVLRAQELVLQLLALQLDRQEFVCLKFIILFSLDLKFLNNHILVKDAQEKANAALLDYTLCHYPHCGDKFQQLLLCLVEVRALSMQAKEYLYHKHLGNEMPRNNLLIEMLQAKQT
For test [13], the target named is T5, Oxysterols receptor LXR-beta (Homo sapiens). The experiment in a line: Selectivity interaction (Reporter gene assay) EUB0001173a NR1H2. As to conditions: screened at recom. conc., Selectivity number of off-targets 1.0, Selectivity number of targets 19.0, Source Knowledge inhouse. Also on record: recommended concentration 1 uM.
Test [14] has as its target T4, Hepatocyte nuclear factor 4-alpha (Homo sapiens). Kind of test: Selectivity interaction (Reporter gene assay) EUB0001173a HNF4A. Also on record: recommended concentration 1 uM.
Test [15] concerns the target T3, Nuclear receptor subfamily 2 group C member 1 (Homo sapiens). The experiment in a line: Selectivity interaction (Reporter gene assay) EUB0001173a NR2C1. Details: recommended concentration 1 uM.
Test [16] concerns the target T2, Alpha trans-inducing protein (Human alphaherpesvirus 1). Kind of test: Selectivity interaction (Reporter gene assay) EUB0001173a UL48. Also on record: recommended concentration 1 uM.
Test [17] has as its target Nuclear receptor subfamily 4immunitygroup A member 1 (Homo sapiens) (UniProt P22736). The experiment in a line: Selectivity interaction (Reporter gene assay) EUB0001173a NR4A1. Details: recommended concentration 1 uM.
For test [18], the target named is Bromodomain-containing protein 1 (Homo sapiens) (UniProt O95696). The conditions noted are these: at 1 µM.
Bromodomain-containing protein 1 (Homo sapiens), sequence (O95696 whole entry): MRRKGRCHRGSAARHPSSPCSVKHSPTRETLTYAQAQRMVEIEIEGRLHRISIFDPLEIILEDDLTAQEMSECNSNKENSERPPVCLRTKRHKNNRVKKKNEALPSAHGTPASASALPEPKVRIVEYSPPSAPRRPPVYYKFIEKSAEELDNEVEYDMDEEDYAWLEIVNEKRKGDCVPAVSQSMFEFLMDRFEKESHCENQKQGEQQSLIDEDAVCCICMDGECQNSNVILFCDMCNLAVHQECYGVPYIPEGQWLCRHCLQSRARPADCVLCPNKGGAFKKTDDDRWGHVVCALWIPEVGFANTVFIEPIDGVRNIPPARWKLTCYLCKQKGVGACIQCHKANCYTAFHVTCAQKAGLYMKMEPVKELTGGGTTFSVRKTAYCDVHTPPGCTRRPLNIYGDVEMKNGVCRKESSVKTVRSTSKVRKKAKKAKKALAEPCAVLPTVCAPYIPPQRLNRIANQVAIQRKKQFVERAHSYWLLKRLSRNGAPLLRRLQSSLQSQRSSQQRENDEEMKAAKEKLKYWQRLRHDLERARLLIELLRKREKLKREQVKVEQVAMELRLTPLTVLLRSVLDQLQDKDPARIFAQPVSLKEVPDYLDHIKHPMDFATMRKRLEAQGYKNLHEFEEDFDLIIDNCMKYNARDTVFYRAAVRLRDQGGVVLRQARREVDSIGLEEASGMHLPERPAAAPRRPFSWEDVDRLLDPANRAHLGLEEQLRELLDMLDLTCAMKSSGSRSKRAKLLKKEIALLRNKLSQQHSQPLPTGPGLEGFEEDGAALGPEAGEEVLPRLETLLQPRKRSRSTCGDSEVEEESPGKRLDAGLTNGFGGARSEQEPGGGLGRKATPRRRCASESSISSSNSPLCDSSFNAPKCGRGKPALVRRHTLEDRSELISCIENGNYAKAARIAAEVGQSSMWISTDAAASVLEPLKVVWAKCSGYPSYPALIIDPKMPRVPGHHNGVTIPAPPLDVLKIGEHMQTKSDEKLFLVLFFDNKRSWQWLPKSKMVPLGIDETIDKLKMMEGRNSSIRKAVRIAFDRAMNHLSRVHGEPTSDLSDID
For test [19], the target named is Bromodomain and PHD finger-containing protein 3 (Homo sapiens) (UniProt Q9ULD4). The conditions noted are these: at 1 µM.
Bromodomain and PHD finger-containing protein 3 (Homo sapiens), sequence (Q9ULD4 whole entry): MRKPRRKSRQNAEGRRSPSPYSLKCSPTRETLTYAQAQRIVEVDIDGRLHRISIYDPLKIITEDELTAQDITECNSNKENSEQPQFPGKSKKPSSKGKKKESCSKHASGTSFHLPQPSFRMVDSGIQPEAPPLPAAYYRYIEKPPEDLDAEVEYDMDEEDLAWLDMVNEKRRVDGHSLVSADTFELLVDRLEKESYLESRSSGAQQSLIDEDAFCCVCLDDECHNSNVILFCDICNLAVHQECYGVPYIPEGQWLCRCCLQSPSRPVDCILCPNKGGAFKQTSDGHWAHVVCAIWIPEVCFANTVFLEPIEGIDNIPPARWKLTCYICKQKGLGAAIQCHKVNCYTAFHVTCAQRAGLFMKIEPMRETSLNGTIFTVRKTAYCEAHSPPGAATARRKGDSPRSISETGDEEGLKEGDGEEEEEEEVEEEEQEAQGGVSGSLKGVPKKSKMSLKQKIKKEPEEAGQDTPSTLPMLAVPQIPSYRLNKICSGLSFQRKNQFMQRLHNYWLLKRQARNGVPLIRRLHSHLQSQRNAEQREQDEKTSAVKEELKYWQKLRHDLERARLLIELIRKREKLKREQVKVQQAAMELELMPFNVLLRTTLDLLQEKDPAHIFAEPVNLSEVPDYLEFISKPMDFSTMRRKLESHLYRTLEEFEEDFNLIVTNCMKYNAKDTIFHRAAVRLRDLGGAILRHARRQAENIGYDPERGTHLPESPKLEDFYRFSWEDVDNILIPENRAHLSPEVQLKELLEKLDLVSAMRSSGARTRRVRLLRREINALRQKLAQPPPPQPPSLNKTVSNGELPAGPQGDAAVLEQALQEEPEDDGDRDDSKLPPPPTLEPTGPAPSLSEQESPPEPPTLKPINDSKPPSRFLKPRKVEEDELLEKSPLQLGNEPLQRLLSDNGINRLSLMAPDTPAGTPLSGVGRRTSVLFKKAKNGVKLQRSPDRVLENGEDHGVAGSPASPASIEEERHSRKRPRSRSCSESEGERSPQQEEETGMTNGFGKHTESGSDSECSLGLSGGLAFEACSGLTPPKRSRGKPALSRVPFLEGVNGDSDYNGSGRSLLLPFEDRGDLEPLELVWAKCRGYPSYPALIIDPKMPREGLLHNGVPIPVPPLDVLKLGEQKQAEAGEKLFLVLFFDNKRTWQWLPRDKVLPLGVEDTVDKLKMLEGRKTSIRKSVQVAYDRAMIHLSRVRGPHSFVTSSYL
Test [20] deals with T3, Nuclear receptor subfamily 2 group C member 1 (Homo sapiens). The experiment in a line: Selectivity interaction (Reporter gene assay) EUB0001478a NR2C1. Also on record: recommended concentration 1 uM.
Test [21] addresses T1, Retinoic acid receptor RXR-alpha (Homo sapiens). The experiment in a line: Selectivity interaction (Reporter gene assay) EUB0001478a RXRA. Also on record: recommended concentration 1 uM.
For test [22], the target named is Nuclear receptor subfamily 2 group E member 1 (Homo sapiens) (UniProt Q9Y466). Kind of test: Selectivity interaction (Reporter gene assay) EUB0001478a NR2E1. Also on record: recommended concentration 1 uM.
Nuclear receptor subfamily 2 group E member 1 (Homo sapiens), sequence (Q9Y466 whole entry): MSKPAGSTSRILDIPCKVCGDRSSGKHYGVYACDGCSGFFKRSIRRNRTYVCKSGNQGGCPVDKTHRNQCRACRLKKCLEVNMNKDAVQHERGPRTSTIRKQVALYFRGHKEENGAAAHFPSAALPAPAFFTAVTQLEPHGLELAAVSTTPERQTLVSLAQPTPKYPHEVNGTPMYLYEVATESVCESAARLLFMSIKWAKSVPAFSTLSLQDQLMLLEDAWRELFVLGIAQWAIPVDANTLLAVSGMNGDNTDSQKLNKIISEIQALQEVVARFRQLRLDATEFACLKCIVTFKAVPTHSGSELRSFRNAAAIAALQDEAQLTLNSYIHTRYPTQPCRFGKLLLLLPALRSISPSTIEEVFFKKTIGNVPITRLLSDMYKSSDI
Test [23] addresses Nuclear receptor subfamily 4immunitygroup A member 1 (Homo sapiens) (UniProt P22736). The experiment in a line: Selectivity interaction (Reporter gene assay) EUB0001478a NR4A1. Also on record: recommended concentration 1 uM.
Test [24] concerns the target T2, Alpha trans-inducing protein (Human alphaherpesvirus 1). Kind of test: Selectivity interaction (Reporter gene assay) EUB0001478a UL48. Also on record: recommended concentration 1 uM.
The target of test [25] is T4, Hepatocyte nuclear factor 4-alpha (Homo sapiens). Kind of test: Selectivity interaction (Reporter gene assay) EUB0001478a HNF4A. Details: recommended concentration 1 uM.
Test [26] deals with Steroidogenic factor 1 (Homo sapiens) (UniProt Q13285). The experiment in a line: Selectivity interaction (Reporter gene assay) EUB0001478a NR5A1. Details: recommended concentration 1 uM.

Oxysterols receptor LXR-alpha (Homo sapiens), sequence (Q13133 whole entry): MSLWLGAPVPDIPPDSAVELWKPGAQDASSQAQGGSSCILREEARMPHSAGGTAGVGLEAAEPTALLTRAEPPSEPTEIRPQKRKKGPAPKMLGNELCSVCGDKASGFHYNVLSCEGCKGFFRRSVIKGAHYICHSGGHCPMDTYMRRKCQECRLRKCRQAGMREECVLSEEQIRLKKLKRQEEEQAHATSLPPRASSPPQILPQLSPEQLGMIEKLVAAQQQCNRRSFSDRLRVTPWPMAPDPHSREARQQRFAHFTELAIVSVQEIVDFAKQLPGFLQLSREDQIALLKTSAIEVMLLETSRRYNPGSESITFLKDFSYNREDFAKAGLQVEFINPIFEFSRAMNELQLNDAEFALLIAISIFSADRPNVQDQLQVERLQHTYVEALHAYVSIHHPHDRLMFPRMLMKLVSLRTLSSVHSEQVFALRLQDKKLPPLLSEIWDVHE

In [1], `COc1cccc(Cn2cc(C(=O)Nc3ccc(C)c(S(=O)(=O)N4CCOCC4)c3)c(-c3ccc(C)cc3)n2)c1` showed a Relative activation of 0.49%. The P-value in [2] amounted to 1.23e-07. Further, the Remaining activity was 0.847 in test [3]; 0.543 in [4]; 0.982 in test [5]; 0.724 in test [7]; 0.617 in test [8]; 0.432 in [9]. This compound registered a Fold activation in test [6] of 1.1.
In the case of `Cn1cc(C(=O)O)c2ccc(N3CCC(OCc4c(-c5c(Cl)cccc5Cl)noc4C4CC4)CC3)cc21`, the Fold activation amounted to 1.08 in test [10]; 0.997 in test [12]; 5.89 in [13]; 1.11 in test [14]; 1.23 in [15]; 1.01 in test [17]. The compound also yielded a Relative activation in [11] of 0.539%. The P-value in test [16] stood at 1.58e-05.
Turning to `CCCOc1cc(OCCCCN(C)C)cc(Oc2cc3c(cc2NS(=O)(=O)c2ccc(OC)c(OC)c2)n(C)c(=O)n3C)c1`, the Control in test [18] and in test [19] was 0% throughout.
Turning to `C=C1/C(=C\C=C2/CCC[C@]3(C)[C@@H]([C@H](C)CCCC(C)(C)O)CC[C@@H]23)C[C@@H](O)C[C@@H]1O`, the Fold activation worked out at 1.06 in test [20], 1.03 in [22] and 1.22 in [23]. The compound further came in with a Relative activation in [21] of 0.656%. Also, the P-value in test [24] came to 6.76e-09. The figures for the Remaining activity in test [25] and in test [26] were 0.883 and 0.937, respectively.
